Laboratory results as given in US20250002435A1, “ARYLATED FENCHONE DERIVATIVES, COMPOSITIONS COMPRISING THEM, PROCESSES FOR THEIR PREPARATION AND USES THEREOF” (priority 2021, published 2025).
Where “and” joins values, the source holds several entries; their conditions need not be identical. Equal entries are not always repeated.

Tests used:
[1] = test system: zymosan-induced paw swelling; assay: zymosan mouse paw inflammatory pain model, paw swelling, with or without CB2 antagonists; format: in vivo; conditions: for paw swelling vs control: 6 h; for paw swelling effects: SR144528 experiment, 24 h after induction
Procedure: To induce inflammation, 40 μL of 1.5% (w/v) zymosan A (Sigma) suspended in 0.9% saline was injected into the sub-planter surface of the right hind paw of the mice. Immediately after zymosan injection, antagonists were injected intraperitoneally (IP) and after 30 minutes, the fenchone derivatives dissolved in 0.1 mL vehicle containing ethanol:Cremophore:saline at a ratio of 1:1:18 were injected. Control mice were injected with the vehicle only. After 2, 6, and 24 hrs, paw swelling, and pain perception were measured.
Specifically, measurement of Oedema Formation was assessed by monitoring paw swelling via calibrated calipers (0.01 mm), 6 and 24 hrs following injections of zymosan alone and/or the test compounds. Pain hyperalgesia was evaluated by the paw withdrawal von Frey test at 6, and 24 h following injections of zymosan and/or the test compounds. […] In this study, only 1.4-60 g corresponding to 4.17 to 5.88 log of force was used, to test the mouse sensitivity to a mechanical stimulus on the swollen paw. The measurements were performed in a quiet room. Before paw pain measurements, the animals were held for 10 sec. The trained investigator applied the filament to the central area of the hind paw with gradual increasing size. The test consisted of poking the middle of the hind paw to provoke a flexion reflex followed by a clear flinch response after paw withdrawal. Each one of the von Frey filaments was applied for approximately 3-4 s to induce the end-point reflex. The first testing was done by using the force filament of 1.4 g. If there was no withdrawal response, the next higher stimulus was tried. The mechanical threshold force (in grams (g)) was defined as the lowest force imposed by two von Frey monofilaments of various sizes, required to produce a paw retraction. The untreated left hind paw served as a control.

hCB2R = hCB2R (Homo sapiens (Human), UniProt P34972); assay: [35S]GTPγS binding assay, hCB2R CHO cell membranes; format: biochemical; conditions: for functional activity at hCB2R (agonist / inverse agonist): [35S]GTPγS binding; for EC50: [35S]GTPγS binding to hCB2R, two independent experiments in triplicate; for E(max) %: percentage of HU-308 response at 1 μM
Sequence of hCB2R (P34972 whole entry): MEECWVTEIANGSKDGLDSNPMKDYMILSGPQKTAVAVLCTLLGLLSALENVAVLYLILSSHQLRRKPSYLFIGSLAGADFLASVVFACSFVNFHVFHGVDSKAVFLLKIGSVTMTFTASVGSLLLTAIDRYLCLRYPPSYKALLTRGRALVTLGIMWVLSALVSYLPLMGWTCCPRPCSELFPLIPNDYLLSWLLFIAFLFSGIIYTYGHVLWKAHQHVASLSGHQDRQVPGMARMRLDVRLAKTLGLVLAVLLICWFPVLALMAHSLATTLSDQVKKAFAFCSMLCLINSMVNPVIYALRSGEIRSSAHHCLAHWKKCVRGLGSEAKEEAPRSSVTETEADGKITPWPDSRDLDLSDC
Procedure: Functional Characterization.
The method used for measuring agonist-stimulated binding of [^35S]GTPγS was based on a described protocol. The assays were carried out with GTPγS assay buffer (50 mM Tris HCl (pH 7.4), 0.2 mM EGTA, 9 mM MgCl2, 150 mM NaCl, 1 mg/ml BSA). Briefly, membranes (5 μg protein) were incubated in assay buffer containing 100 μM GDP, 0.05 nM [^35S]GTPγS, test compounds at various concentrations in siliconized glass tubes. Bound ligand was separated from free ligand by vacuum filtration. Nonspecific binding was determined using 10 μM GTPS. Basal binding was assayed in the absence of the ligand and in the presence of GDP.

CNR1 = CNR1 (Homo sapiens (Human), UniProt P21554); assay: cAMP Hunter agonist assay, CHO-K1 cells expressing CB1; format: cell-based
Procedure: Cannabinoid receptors belong to G-protein-coupled receptors which may transduce intracellular agonist-antagonist responses regulating in part levels of cAMP within the cells. Fenchone derivates were assayed using Eurofins proprietary assays (i.e. CB1-Antagonist Catalog #86-0007P-2277AN; CB2-Antagonist Catalog ref. 86-0007P-2818AN; CB1-Agonist; Catalog #86-0007P-2277AG; CB2-Agonist-Catalog #86-0007P-2818AG).
Similarly, for agonist activity, cAMP Hunter™ Gs cell lines overexpress naturally Gs coupled, wild type GPCRs and are designed to detect increases in intracellular cAMP levels in response to agonist stimulation of the receptor. These cell lines are designed to be used in conjunction with the HitHunter® cAMP Assay Detection Kit. For both assays, human CB1 or CB2 receptors were stably transfected CHO-K1 cells and subjected to positive controls, known to activate the increase of cAMP for both receptors (Agonist control 20 μM Forskolin for CB1 and 25 μM Forskolin for CB2) or inhibit cAMP intracellular levels of CB1 ([…] CP55940) or CB2 ([…] CP55940). Cells were seeded in a total volume of 20 μL into white walled, 384-well microplates and incubated at 37° C. overnight. Prior to testing cell plating media was exchanged with 10 uL of Assay buffer (HBSS+10 mM HEPES). […]

mCB1R = mCB1R (Mus musculus (Mouse), UniProt P47746); assay: [3H]CP-55,940 competition displacement binding, crude membranes from mouse brain; conditions: for Ki: displacement of [3H]CP-55,940, NB = No binding detected at concentrations up to 10 μM, read-out: Ki (nM) mCB1R
Sequence of mCB1R (P47746 whole entry): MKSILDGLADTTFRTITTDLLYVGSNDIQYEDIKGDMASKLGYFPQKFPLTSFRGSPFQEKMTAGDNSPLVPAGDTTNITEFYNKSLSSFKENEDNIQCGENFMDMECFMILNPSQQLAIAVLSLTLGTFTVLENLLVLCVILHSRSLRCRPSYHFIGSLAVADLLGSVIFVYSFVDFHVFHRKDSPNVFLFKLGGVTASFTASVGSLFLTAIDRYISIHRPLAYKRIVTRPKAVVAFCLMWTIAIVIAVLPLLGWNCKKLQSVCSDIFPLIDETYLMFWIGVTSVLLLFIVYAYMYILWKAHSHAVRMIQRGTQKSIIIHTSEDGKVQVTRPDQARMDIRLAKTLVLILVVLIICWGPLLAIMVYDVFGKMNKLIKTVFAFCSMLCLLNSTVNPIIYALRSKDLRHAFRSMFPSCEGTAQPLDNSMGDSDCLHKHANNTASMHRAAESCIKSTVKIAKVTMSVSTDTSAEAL
Procedure: Affinity for Cannabinoid Receptors. The compounds were further characterized using a radioligand binding assay to determine their affinities for CB1R and CB2R based on each test compound's ability to displace the radiolabeled CB1R/CB2R agonist CP-55,940 from membranes prepared from a mouse brain (a source of CB1R) and membranes of cells expressing the human CB2R. […] Therefore, the compounds were assayed using membranes from CHO-K1 cells expressing the human CB2R (hCB2R).
Membranes from cells expressing human CB2R were purchased from Charles River, (Cat #A308; Ohio, US). Solutions of test compounds ranging from 0.1 nM to 10 mM were prepared in DMSO. The desired amount of membrane preparation was diluted with ice-cold assay buffer (50 mM Tris-HCl, 2.5 mM EDTA, 5 mM MgCl2, 0.1% BSA, pH 7.4) and was vortexed. […] The assays were incubated for 90 minutes at 30° C. and then immediately filtered on WHATMAN GF/B FilterPaper (Fired) using a Brandel M-24R Harvester followed by six washes with ice cold wash buffer (50 mM Tris-HCl, 2.5 mM EDTA, 5 mM MgCl2, 0.1% BSA, pH 7.4). Radioactivity was detected by adding the FilterPaper directly to the ULTIMA GOLD scintillation cocktail (PerkinElmer), incubation at 20° C. for 60 min and then counted using a Tri-Carb 4910TR liquid scintillation counter.

[2] = 25 mg/kg IP together with CB2 antagonist SR144528 1 mg/kg

Compound: CCCCCCC(C)(C)c1cc(OC)c([C@]2(O)C3(C)CCC(C3)C2(C)C)c(OC)c1 (stereo partly shown) [Compound 1d, 2-(2,6′-dimethoxy-4′-(2″-methyloctan-2″-yl)phenyl)-1,3,3-trimethyl-bicyclo[2.2.1]heptan-2-ol]
- paw swelling ([1]; 25 mg/kg IP 1D and 10 mg/kg AM630, 6 h): reduced swelling
- paw swelling ([1]; 25 mg/kg IP alone, 24 h, AM630 experiment): reduced swelling with 1D alone was sustained
- paw swelling vs control [1, 2]: swelling was reduced compared to the control
- paw swelling vs control ([1]; 25 mg/kg IP, alone): reduced swelling response
- paw swelling effects [1]: not observed
- functional activity at hCB2R (agonist / inverse agonist) (hCB2R): agonist
- EC50 (hCB2R): 0.0026 µM and 0.00259 µM
- E(max) % (hCB2R): 89.63%
- agonist response CNR1 (CNR1): no response
- Ki (mCB1R): 427 nM

Compound: CCCCCc1cc(OC)c(C2(O)C3(C)CCC(C3)C2(C)C)c(OC)c1 (single isomer, unassigned) [Compound 1b, 2-(2,6′-dimethoxy-4′-pentylphenyl)-1,3,3-trimethylbicyclo[2.2.1]heptan-2-ol]
- paw swelling vs control [1, 2]: paw swelling was unaffected
- paw swelling vs control ([1]; 25 mg/kg IP, alone): reduced swelling response
- paw swelling effects [1]: not observed
- functional activity at hCB2R (agonist / inverse agonist) (hCB2R): agonist
- EC50 (hCB2R): 0.0116 µM
- E(max) % (hCB2R): 65.1%
- agonist response CNR1 (CNR1): no response
- Ki (mCB1R): 2290 nM
- inhibition of [3H]CP-55,940 binding to mCB1R (mCB1R; in words): no detectable inhibition
